Source: patent US10434111B2, “Compositions and methods for modification of biomolecules” (THE REGENTS OF THE UNIVERSITY OF CALIFORNIA, priority 2004, dated 2019)

Assays:
[1] = Kinetic evaluation of [3+2] cycloaddition of cyclooctyne probes with 2-azidoethanol (1H NMR); type: physicochemical; details: HOCH2CH2N3, CD3CN/PBS (55:45), 22° C.
Experimental: (§1) Stock solutions of cyclooctynes 3a and 3b (50 mM), benzyl azide (500 mM) and 2-azidoethanol (500 mM) were made in either CD3CN or a 55:45 mixture of CD3CN and deuterated Dulbecco's phosphate-buffered saline (pH 7.4, made with D2O). Gentle heating and/or sonication in a H2O bath was required to fully dissolve 3a and 3b. An NMR tube was charged with 450 μL of either 3a or 3b, and 50 μL of either benzyl azide or 2-azidoethanol, and the reaction was monitored over time using ^1H NMR spectroscopy.
(§2) In the case of the reactions of 3a and 3b with benzyl azide, the kinetic data were derived by monitoring the change in integration of resonances corresponding to the benzylic protons in benzyl azide (δ˜4.2 ppm) compared to the corresponding resonances of the triazole products (δ ˜5.0 to 5.5 ppm). […]
(§3) Second-order rate constants for the reaction were determined by plotting 1/[benzyl azide] versus time in the case of the reactions of 3a and 3b with benzyl azide and by plotting 1/[3a] versus time or 1/[3b] versus time in the case of the reactions of 3a and 3b with 2-azidoethanol, and subsequent analysis by linear regression. Second-order rate constants correspond to one half of the determined slope (Table 1). […]

[2] = Kinetic evaluation of [3+2] cycloaddition of cyclooctyne probes with benzyl azide (1H NMR); type: physicochemical; details: PhCH2N3, CD3CN, 22° C.
Experimental: as §1, §2, §3

[3] = target: T1, azide-labeled GlyCAM-Ig (Mus musculus, UniProt Q02596); assay: Western blot analysis of azide-labeled GlyCAM-Ig; type: biochemical; details: for labeling (biotinylation) of GlyCAM-Ig modified with SiaNAz: 250 μM probe alone, overnight at rt, no copper catalysis
T1 construct: made in house; host or cells: CHO cells grown with Ac4ManNAz
T1 sequence (Q02596 20-151): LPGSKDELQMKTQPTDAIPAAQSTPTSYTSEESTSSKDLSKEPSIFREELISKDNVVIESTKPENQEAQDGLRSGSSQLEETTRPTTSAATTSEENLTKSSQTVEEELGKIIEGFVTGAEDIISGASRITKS
Experimental: For Western blot analysis of azide-labeled and unlabeled GlyCAM-Ig, samples were incubated with 5 (250 μM final concentration in PBS, pH 7.4 containing 0.7% DMF), 6 (250 μM final concentration in PBS, pH 7.4 containing either 0.7% DMF) or left untreated for 12 h. To verify that 6 could react with azide-labeled GlyCAM-Ig via copper-mediated [3+2] cycloaddition, a modified version of the method reported by Speers and Cravatt was employed. Speers and Cravatt (2004) Chem. Biol. 11:535-46. Briefly, GlyCAM-Ig samples (in PBS, pH 7.4 containing 0.7% DMF) were incubated with 250 μM 6, 2.5 mM TCEP, 250 μM tris-triazolyl ligand (from a 1.7 mM stock in 1:4 DMSO:tert-butanol), and 2.5 mM CuSO4. Samples were vortexed and allowed to react at rt for 12 h. Prior to electrophoresis, samples were incubated with an equal volume of 100 mM 2-azidoethanol in 2×SDS-PAGE loading buffer for 8 h at rt (to quench unreacted 5 or 6). The quenched samples were boiled for 3 min and loaded onto precast polyacrylamide gels. After electrophoresis, the samples were electroblotted to nitrocellulose membrane. The membrane was blocked using 5% BSA in PBS (pH 7.4, containing 0.05% Tween 20 (blocking buffer A) for 1 h at rt, then incubated with a solution of blocking buffer A containing HRP-α-biotin (1:250,000 dilution, 1 h at rt). The membrane was washed, and detection of membrane-bound anti-biotin-HRP was accomplished by chemiluminescence. Following detection, the membrane was rinsed with PBS (pH 7.4) containing 0.05% Tween (PBS-T) and placed in stripping buffer (15 min at RT) to remove bound anti-biotin Ig. The membrane was thoroughly rinsed with PBS-T and probed for residual anti-biotin signal by chemiluminescence.
The membrane was washed and re-blocked with 5% low-fat dry powdered milk (blocking buffer B) for 1 h at rt. The membrane was then incubated with HRP-α-Ig (1:5000 in blocking buffer B) for 1 h at rt. The membrane was washed again with PBS-T, and detection of membrane bound anti-human Ig was accomplished as for peroxidase-conjugated anti-biotin. Control samples were treated in an identical manner, except that specific reagents were replaced by buffer where appropriate.
FIG. 2. Labeling of azide-modified GlyCAM-Ig with alkyne probes. Purified GlyCAM-Ig was treated with buffer (−), 250 μM 5, or 250 μM 6 alone or in the presence (cat) of CuSO4, TCEP, and a triazolyl ligand, overnight at rt. Reaction mixtures were quenched with 2-azidoethanol and analyzed by Western blot probing with HRP-α-biotin (upper panel). The blot was then stripped and reprobed with HRP-α-Ig (lower panel).

[4] = tested on: Jurkat cells; assay: Cell surface azide labeling and detection, Jurkat cells, FITC-avidin flow cytometry; type: cell-based, human
Experimental: Jurkat cells were seeded at a density of 1.5-2.0×10^5 cells/mL and incubated for 3 d in untreated media or media containing various concentrations of Ac4ManNAz. […] Cells were then incubated with 5 or a biotinylated phosphine probe (Vocadlo et al. (2003) Proc. Natl. Acad. Sci. U.S.A. 100:9116-21) in labeling buffer containing 2.8% DMF or labeling buffer plus 2.8% DMF alone. […] Following a 10-min incubation on ice (in the dark), cells were washed with 200 μL of cold labeling buffer and the FITC-avidin staining procedure was repeated.
FIGS. 3A and 3B. Cell surface labeling with compound 5. Jurkat cells were incubated in the presence (+Az) or absence (−Az) of 25 μM Ac4ManNAz for 3 d. FIG. 3A. The cells were reacted with various concentrations of 5 for 1 h at rt and treated with FITC-avidin; mean fluorescence intensity (MFI) was determined by flow cytometry. FIG. 3B. The cells were incubated with 250 μM 5 for various durations at rt and analyzed as in A. C. The cells were incubated with 100 μM probe for 1 h at rt and analyzed as in A. Error bars represent the standard deviation from three replicates. AU=arbitrary fluorescence units.

[5] = tested on: Jurkat cells
[6] = Stability of cyclooctyne 3 to acid, base and biological nucleophiles; type: physicochemical
Experimental: [drawing 31] by Reese and Shaw. Reese and Shaw (1970) Chem. Comm. 1172-1173. Briefly, compound 1 (Skattebol and Solomon, supra) was treated with silver perchlorate to effect electrocyclic ring opening to the trans-allylic cation, which was captured with methyl hydroxymethylbenzoate to afford bromo-trans-cyclooctene 2. Base-mediated elimination of the vinyl bromide followed by saponification yielded versatile intermediate 3, to which any biological probe can be attached. Finally, compound 3 was coupled to biotin analog 4 (Wilbur et al. (1996) Bioconj. Chem. 7:689-702) bearing a PEG linker, providing target 5. Cyclooctyne 3 was stable to mild acid (0.5 N HCl for 30 min), base (0.8 M NaOMe for 30 min), and prolonged exposure to biological nucleophiles such as thiols (120 mM 2-mercaptoethanol for 12 h).

With `O=C(O)c1ccc(CC2C#CCCCCC2)cc1` (stereo not drawn) [Compound 3a, 4-Cyclooct-2-ynylmethylbenzoic acid] the “k, second-order rate constant for the [3 + 2] cycloaddition” value (shortened to “k, second-order rate constant”) [1] was 0.0011 M⁻¹ s⁻¹ and the “k, second-order rate constant” value [2] was 0.0012 M⁻¹ s⁻¹.
With `C#CCCC(=O)NCCCOCCOCCOCCCNC(=O)CCCC[C@@H]1SC[C@@H]2NC(=O)N[C@@H]21` [Compound 6] the “labeling (biotinylation) of GlyCAM-Ig modified with SiaNAz” value ([3]; HRP-α-biotin blot) was “no glycoprotein labeling”, the “labeling of the azide-modified glycoprotein with copper catalysis” value ([3]; 250 μM probe plus CuSO4, TCEP and a triazolyl ligand) was “facile labeling” and the “anti-IgG immunoreactivity of labeled azide-modified GlyCAM-Ig” value ([3]; in the presence of copper, blot reprobed with HRP-α-IgG) was “consistently diminished”.
For `O=C(O)c1ccc(CC2(F)C#CCCCCC2)cc1` (stereo not drawn) [Compound 3b, 4-(1-Fluoro-cyclooct-2-ynylmethyl)benzoic acid], the “k, second-order rate constant” value [1] was 0.004 M⁻¹ s⁻¹ and the “k, second-order rate constant” value [2] was 0.0042 M⁻¹ s⁻¹.
For `O=C(CCCC[C@@H]1SC[C@@H]2NC(=O)N[C@@H]21)NCCCOCCOCCOCCCNC(=O)c1ccc(COC2C#CCCCCC2)cc1` (stereo partly drawn) [Compound 5], the “dependence of cell surface reaction on incubation time” value ([4]; Jurkat +Az, 250 μM probe for various durations at rt) was “dependent on duration of incubation”, the “effects on cell viability” value ([4]; Jurkat cells treated with probe) was “No negative effects” and the “labeling of cells lacking azides” value ([4]; Jurkat grown without Ac4ManNAz) was “No detectable labeling”. The “fluorescence of cells displaying azides upon treatment with the cyclooctyne probe” value ([4]; Jurkat, 25 μM Ac4ManNAz 3 d, various concentrations of probe, rt, FITC-avidin) was “dose-dependent increase in fluorescence”, the “labeling (biotinylation) of GlyCAM-Ig modified with SiaNAz” value ([3]; HRP-α-biotin blot) was “Robust biotinylation” and the “labeling of native GlyCAM-Ig lacking azides” value ([3]; 250 μM probe overnight, HRP-α-biotin blot) was “no background labeling”.
In the case of `O=C(CCCC[C@@H]1SC[C@@H]2NC(=O)N[C@@H]21)NCCCOCCOCCOCCCNC(=O)COC1CCC#CC(F)(F)CC1` (stereo partly drawn) [DIFO-biotin], the “labeling of azide-containing membrane-associated glycans in live cells” value ([5]; 0 or 25 μM Ac4ManNAz 3 days, probe 1 h, FITC-avidin) is reported as “selectively label” and the “sensitivity of azide detection compared to a nonfluorinated cyclooctyne or a phosphine capable of Staudinger ligation” value ([5]; 100 μM probes, 1 h) is reported as “much higher”.
With `O=C(O)c1ccc(COC2C#CCCCCC2)cc1` (stereo not drawn) [Compound 3] the “stability to biological nucleophiles such as thiols” value ([6]; 120 mM 2-mercaptoethanol for 12 h) was “stable”, the “stability to mild acid” value ([6]; 0.5 N HCl for 30 min) was “stable” and the stability to base ([6]; 0.8 M NaOMe for 30 min) was “stable”.
